Data from patent publication US11590139B2, “Substituted aminopurine compounds, compositions thereof, and methods of treatment therewith” (Signal Pharmaceuticals, LLC, priority 2014, dated 2023).

system: Lox-IMVI melanoma cell line; assay: Lox-IMVI anti-proliferative assay (growth inhibition, Cell Titer-Glo); type: cell-based, human; conditions: Homo sapiens; IC50 activity level in the cell-based Lox-IMVI anti-proliferative assay; read-out: Activity
In short: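 IC50 values reflect the concentration giving 50% of DMSO-control luminescence after 72 h of treatment, fitted with a four-parameter logistic model. Cells were cultured in RPMI + 10% FBS with compound from 0.5 nM to 10 μM.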

Row | IC50 | Compound
1 | < 0.25 µM | NC(=O)[C@H]1CC[C@@H](n2c(Nc3c(F)cc(Cl)cc3Cl)nc3cnc(N[C@@H]4CCC[C@H](O)C4)nc32)CC1 [Example 361, (1S,4s)-4-(8-(2,4-dichloro-6-fluorophenylamino)-2-((1R,3S)-3-hydroxycyclohexylamino)-9H-purin-9-yl)cyclohexanecarboxamide]
2 | > 1 µM | NC(=O)[C@H]1CC[C@@H](n2c(Nc3ccc(F)c(F)c3F)nc3cnc(N[C@@H]4CCC[C@H](O)C4)nc32)CC1 [Example 364, (1S,4s)-4-(2-((1R,3S)-3-hydroxycyclohexylamino)-8-(2,3,4-trifluorophenylamino)-9H-purin-9-yl)cyclohexanecarboxamide]
3 | > 1 µM | C[C@@H]1CC[C@@H](Nc2ncc3nc(Nc4c(F)ccc(Cl)c4F)n([C@H]4CC[C@@H](C(N)=O)CC4)c3n2)C[C@H]1O [Example 358, (1S,4s)-4-(8-(3-chloro-2,6-difluorophenylamino)-2-((1R,3R,4R)-3-hydroxy-4-methylcyclohexylamino)-9H-purin-9-yl)cyclohexanecarboxamide]
4 | > 1 µM | NC(=O)[C@H]1CC[C@@H](n2c(Nc3c(F)cccc3F)nc3cnc(NC4CC5(COC5)C4)nc32)CC1 [Example 173, (1s,4s)-4-(2-(2-oxaspiro[3.3]heptan-6-ylamino)-8-(2,6-difluorophenylamino)-9H-purin-9-yl)cyclohexanecarboxamide]
5 | > 1 µM | NC(=O)[C@H]1CC[C@@H](n2c(Nc3ccc(Cl)c(F)c3F)nc3cnc(N[C@@H]4CC[C@@H](O)C4)nc32)CC1 [Example 216, (1S,4s)-4-(8-(4-chloro-2,3-difluorophenylamino)-2-((1R,3R)-3-hydroxycyclopentylamino)-9H-purin-9-yl)cyclohexanecarboxamide]
6 | > 1 µM | NC(=O)[C@H]1CC[C@@H](n2c(Nc3c(F)cc(Cl)cc3Cl)nc3cnc(NC4CCS(=O)(=O)CC4)nc32)CC1 [Example 157, (1s,4s)-4-(8-((2,4-dichloro-6-fluorophenyl)amino)-2-((1,1-dioxidotetrahydro-2H-thiopyran-4-yl)amino)-9H-purin-9-yl)cyclohexane-1-carboxamide]
7 | > 1 µM | CC1(C)CC[C@@H](Nc2ncc3nc(Nc4c(F)cccc4Cl)n([C@H]4CC[C@@H](C(N)=O)CC4)c3n2)C[C@H]1O [Example 384, (1S,4s)-4-(8-(2-chloro-6-fluorophenylamino)-2-((1R,3R)-3-hydroxy-4,4-dimethylcyclohexylamino)-9H-purin-9-yl)cyclohexanecarboxamide]
8 | > 1 µM | C[C@@H]1CC[C@@H](Nc2ncc3nc(Nc4ccc(Cl)cc4Cl)n([C@H]4CC[C@@H](C(N)=O)CC4)c3n2)C[C@H]1O [Example 391, (1S,4s)-4-(8-(2,4-dichlorophenylamino)-2-((1R,3R,4R)-3-hydroxy-4-methylcyclohexylamino)-9H-purin-9-yl)cyclohexanecarboxamide]
9 | > 1 µM | NC(=O)[C@H]1CC[C@@H](n2c(Nc3cccc(F)c3Cl)nc3cnc(NC4CCOCC4)nc32)CC1 [Example 61, (1s,4s)-4-(8-(2-chloro-3-fluorophenylamino)-2-(tetrahydro-2H-pyran-4-ylamino)-9H-purin-9-yl)cyclohexanecarboxamide]
10 | > 1 µM | C[C@@H](CO)Nc1ncc2nc(Nc3ccc(Cl)cc3Cl)n([C@H]3CC[C@@H](C(N)=O)CC3)c2n1 [Example 170, (1R,4s)-4-(8-(2,4-dichlorophenylamino)-2-((S)-1-hydroxypropan-2-ylamino)-9H-purin-9-yl)cyclohexanecarboxamide]
11 | 0.5 to 1 µM | NC(=O)[C@H]1CC[C@@H](n2c(Nc3c(Cl)ccc(F)c3F)nc3cnc(NC4CCOCC4)nc32)CC1 [Example 113, (1s,4s)-4-(8-(6-chloro-2,3-difluorophenylamino)-2-(tetrahydro-2H-pyran-4-ylamino)-9H-purin-9-yl)cyclohexanecarboxamide]
12 | 0.5 to 1 µM | CS(=O)(=O)N1CCC(Nc2ncc3nc(Nc4c(F)cc(Cl)cc4Cl)n([C@H]4CC[C@@H](C(N)=O)CC4)c3n2)CC1 [Example 296, (1s,4s)-4-(8-(2,4-dichloro-6-fluorophenylamino)-2-(1-(methylsulfonyl)piperidin-4-ylamino)-9H-purin-9-yl)cyclohexanecarboxamide]

same assay, conditions: Homo sapiens; Lox-IMVI anti-proliferative assay, IC50 activity level; read-out: Activity

Row | IC50 | Compound
13 | > 1 µM | NC(=O)[C@H]1CC[C@@H](n2c(Nc3c(Cl)cc(C(F)(F)F)cc3Cl)nc3cnc(N[C@@H]4CCOC4)nc32)CC1 [Example 523, (1S,4s)-4-(8-(2,6-dichloro-4-(trifluoromethyl)phenylamino)-2-((R)-tetrahydrofuran-3-ylamino)-9H-purin-9-yl)cyclohexanecarboxamide]
14 | > 1 µM | NC(=O)[C@H]1CC[C@@H](n2c(Nc3c(F)cc(F)cc3Cl)nc3cnc(N[C@@H]4CCC[C@@H](O)C4)nc32)CC1 [Example 420, (1S,4s)-4-(8-(2-chloro-4,6-difluorophenylamino)-2-((1R,3R)-3-hydroxycyclohexylamino)-9H-purin-9-yl)cyclohexanecarboxamide]
15 | < 0.25 µM | C[C@]1(C(N)=O)CC[C@@H](n2c(Nc3c(F)cc(F)cc3F)nc3cnc(NC4CC(F)(F)C4)nc32)CC1 [Example 578, (1s,4s)-4-(2-(3,3-difluorocyclobutylamino)-8-(2,4,6-trifluorophenylamino)-9H-purin-9-yl)-1-methylcyclohexanecarboxamide]
16 | > 1 µM | COC(=O)N1CCC[C@@H](Nc2ncc3nc(Nc4ccc(Cl)c(F)c4F)n([C@H]4CC[C@@H](C(N)=O)CC4)c3n2)C1 [Example 411, (R)-methyl 3-(9-((1s,4S)-4-carbamoylcyclohexyl)-8-(4-chloro-2,3 difluorophenylamino)-9H-purin-2-ylamino)piperidine-1-carboxylate]
17 | > 1 µM | NC(=O)[C@H]1CC[C@@H](n2c(Nc3c(F)cc(F)cc3Cl)nc3cnc(N[C@@H]4CCCC[C@H](O)C4)nc32)CC1 [Example 437, (1S,4s)-4-(8-(2-chloro-4,6-difluorophenylamino)-2-((1R,3S)-3-hydroxycycloheptylamino)-9H-purin-9-yl)cyclohexanecarboxamide]
18 | > 1 µM | NC(=O)[C@H]1CC[C@@H](n2c(Nc3c(Cl)cc(Cl)cc3Cl)nc3cnc(NCC(F)(F)CO)nc32)CC1 [Example 450, (1s,4s)-4-(2-(2,2-difluoro-3-hydroxypropylamino)-8-(2,4,6-trichlorophenylamino)-9H-purin-9-yl)cyclohexanecarboxamide]
19 | 0.25 to 0.5 µM | NC(=O)[C@H]1CC[C@@H](n2c(Nc3c(F)cc(F)cc3F)nc3cnc(N[C@H]4CCC(F)(F)C4)nc32)CC1 [Example 593, (1R,4s)-4-(2-((S)-3,3-difluorocyclopentylamino)-8-(2,4,6-trifluorophenylamino)-9H-purin-9-yl)cyclohexanecarboxamide]

same assay, conditions: Homo sapiens; Lox-IMVI melanoma cell line, anti-proliferative assay; read-out: Activity (IC50 activity level)

Row | IC50 | Compound
20 | > 1 µM | CS(=O)(=O)C1CC(Nc2ncc3nc(Nc4c(F)cc(Cl)cc4Cl)n([C@H]4CC[C@@H](C(N)=O)CC4)c3n2)C1 (stereo partly drawn) [Example 731, (1s,4s)-4-(8-(2,4-dichloro-6-fluorophenylamino)-2-(3-(methylsulfonyl)cyclobutylamino)-9H-purin-9-yl)cyclohexanecarboxamide]
21 | > 1 µM | NC(=O)[C@H]1CC[C@@H](n2c(Nc3c(F)cc(Cl)cc3Cl)nc3cnc(NC4CCC(N5C(=O)CCC5=O)CC4)nc32)CC1 (stereo partly drawn) [Example 667, (1s,4s)-4-(8-(2,4-dichloro-6-fluorophenylamino)-2-(4-(2,5-dioxopyrrolidin-1-yl)cyclohexylamino)-9H-purin-9-yl)cyclohexanecarboxamide]
22 | 0.25 to 0.5 µM | N#Cc1cc(F)c(Nc2nc3cnc(N[C@H]4CCC[C@H](O)C4)nc3n2[C@H]2CC[C@@H](C(N)=O)CC2)c(Cl)c1 [Example 689, (1R,4s)-4-(8-(2-chloro-4-cyano-6-fluorophenylamino)-2-((1S,3S)-3-hydroxycyclohexylamino)-9H-purin-9-yl)cyclohexanecarboxamide]
23 | < 0.25 µM | C[C@]1(C(N)=O)CC[C@@H](n2c(Nc3c(F)cc(F)cc3Cl)nc3cnc(N[C@@H]4CCOC[C@H]4F)nc32)CC1 [Example 715, (1S,4s)-4-(8-(2-chloro-4,6-difluorophenylamino)-2-((3S,4R)-3-fluorotetrahydro-2H-pyran-4-ylamino)-9H-purin-9-yl)-1-methylcyclohexanecarboxamide]
24 | > 1 µM | CNC(=O)N1CCC[C@@H](Nc2ncc3nc(Nc4c(Cl)cc(C(F)(F)F)cc4Cl)n([C@H]4CC[C@@H](C(N)=O)CC4)c3n2)C1 [Example 796, (R)-3-(9-((1s,4S)-4-carbamoylcyclohexyl)-8-(2,6-dichloro-4-(trifluoromethyl)phenylamino)-9H-purin-2-ylamino)-N-methylpiperidine-1-carboxamide]
25 | > 1 µM | NC(=O)[C@H]1CC[C@@H](n2c(Nc3c(F)cc(Cl)cc3Cl)nc3cnc(N[C@@H]4CCCN(Cc5ccccc5)C4)nc32)CC1 [Example 758, (1S,4s)-4-(2-((R)-1-benzylpiperidin-3-ylamino)-8-(2,4-dichloro-6-fluorophenylamino)-9H-purin-9-yl)cyclohexanecarboxamide]
26 | < 0.25 µM | C[C@]1(C(N)=O)CC[C@@H](n2c(Nc3c(Cl)cc(F)cc3Cl)nc3cnc(N[C@H]4CCC[C@H](O)C4)nc32)CC1 [Example 613, (1R,4s)-4-(8-(2,6-dichloro-4-fluorophenylamino)-2-((1S,3S)-3-hydroxycyclohexylamino)-9H-purin-9-yl)-1-methylcyclohexanecarboxamide]

same assay, conditions: Lox-IMVI melanoma cell line, anti-proliferative assay; read-out: Activity (IC50 activity level)

Row | IC50 | Compound
27 | > 1 µM | CNC(=O)N1CCC[C@@H](Nc2ncc3nc(Nc4c(Cl)cc(C#N)cc4Cl)n([C@H]4CC[C@@H](C(N)=O)CC4)c3n2)C1 [Example 707, (R)-3-(9-((1s,4S)-4-carbamoylcyclohexyl)-8-(2,6-dichloro-4-cyanophenylamino)-9H-purin-2-ylamino)-N-methylpiperidine-1-carboxamide]
